Data reported in patent publication US20250049749A1, “COMPOSITION FOR IMPROVING SLEEP QUALITY OR CONTROLLING AUTONOMIC NERVOUS SYSTEM” (OTSUKA PHARMACEUTICAL CO., LTD., priority 2021, published 2025).
“Also recorded” adds a separate entry of the source.

What was measured:
Format in all cases: in vivo, human
athletes = assay: Test 2: athlete questionnaire (0 to 10) and comments before and on day 30 of intake
Procedure: The following tests were carried out to investigate the functions of kaempferol. [table] [table] In addition to the above score evaluations, an optional evaluation of the mental and physical state after intake of the test sample as compared to that before the intake was obtained in the form of comments.

[1] = tested on: healthy adult men and women; assay: Test 1: randomized, double-blind, placebo-controlled, crossover comparative test (sleep and autonomic nervous system, Fitbit Charge 4)
Procedure: A randomized, double-blind, placebo-controlled, crossover comparative test as summarized in the table below was conducted to examine the relationship between kaempferol, sleep, and the autonomic nervous system.
The granular foods used in the test were prepared according to the following procedure. Horseradish leaves were extracted twice with 50% aqueous ethanol at 50° C. and concentrated under reduced pressure. The concentrate was purified with resin to obtain a solution. Hemicellulase “Amano” 90 and Lactase F “Amano” (produced by Amano Enzyme, Inc.) were added to the solution to allow the enzyme to act thereon while stirring at 50° C. The resulting reaction liquid was then heated to 80° C. and maintained for 20 minutes to inactivate the enzyme. The resulting treated liquid was then freeze-dried to give an ethanol extract powder. This powder was combined with an equal amount (on a weight basis) of starch and erythritol and mixed into granules. The granules were packed in aluminum pouches in an amount of 116 mg (containing 10 mg of kaempferol) per pouch. The subjects ingested the contents of one pouch at one time (10 mg of kaempferol in total). The food used as a placebo was granules of starch and erythritol.
The sleep score is an index of sleep quality on a scale of 0 to 100, with a score of 90 to 100 indicating very good sleep quality, a score of 80 to 89 indicating good sleep quality, a score of 60 to 79 indicating slightly low sleep quality, and a score of 60 or less indicating low sleep quality. The sleeping heart rate is known to correlate with sleep quality. Specifically, it has been reported that the higher the heart rate during sleep, the less satisfactory the sleep obtained is (i.e., the quality of sleep is low) (see Non-Patent Literature (NPL) 1). […] This is generally consistent with the difference between the average sleeping heart rate in people with good quality sleep and that in people with poor sleep quality (FIG. 3 in NPL 1).
RMSSD is the square root of the mean squared differences of successive adjacent R-R intervals (interval from one QRS wave to the next QRS wave) and is an index of vagal tone intensity. A rise in RMSSD indicates increased parasympathetic activity or decreased sympathetic activity. […] According to the formula shown in FIG. 2 (right), KMP intake is considered to rejuvenate the age of autonomic nervous system function by 16.3 years.
The LF/HF ratio is a ratio of low frequency (LF) to high frequency (HF) power and represents the overall balance between the sympathetic nervous system and the parasympathetic nervous system. A higher LF/HF ratio indicates a state of sympathetic nervous system dominance, whereas a lower LF/HF ratio indicates parasympathetic nervous system dominance. […] According to the formula shown in FIG. 3 (right), KMP intake is considered to rejuvenate the age of autonomic nervous system function by 5.8 years.

[2] = tested on: persons with meteoropathy; assay: Test 3: meteoropathy symptom questionnaire before and after start of intake
Procedure: The test shown below was conducted to investigate the functions of kaempferol associated with meteoropathy. [table]

[3] = 10 mg KMP once a day, day 30 vs before intake, FIG. 4, FIG. 5
[4] = all subjects (159 athletes), 10 mg KMP once a day, day 30 vs before intake, FIG. 4
[5] = optional comment of a single subject, state after intake of the test sample vs before
[6] = swimmers (50 persons), day 30 vs before intake, FIG. 5
[7] = 10 mg KMP once a day, two weeks, vs placebo, FIG. 1
[8] = all symptoms, during KMP intake vs before, FIG. 7

In the case of `O=c1c(O)c(-c2ccc(O)cc2)oc2cc(O)cc(O)c12` [KMP, kaempferol], the “Achievement of exercise performance” value (athletes; [3]) was “useful”, the Fatigue alleviation (athletes; [3]) was “useful” and the “Improvement of endurance (improved shortness of breath)” value (athletes; [3]) was “useful”. The Recovery from fatigue (athletes; [3]) was “useful”, the “Ease in sleep (questionnaire score)” value (athletes; [4]) was “significant improvement” and the “Ease in waking up (questionnaire score)” value (athletes; [4]) was “significant improvement”. For the same compound, the “Comments relating to menstruation” value (athletes; [5]) was “Menstrual pain has been relieved. Menstrual cycle; also recorded: irregularities has been improved; also recorded: Menstrual pain has been relieved and abdominal; also recorded: Swollen feet before menstruation has been relieved; also recorded: has come naturally; also recorded: returned to normal”, the “Comments relating to mental state” value (athletes; [5]) was “Have more motivation to practice; also recorded: Feel more highly motivated before a competition; also recorded: Feel more positive; also recorded: More mentally stable; also recorded: No longer feel depressed; also recorded: Feel less tired and more motivated to practice; also recorded: Feel better during practice; also recorded: Have become able to run more calmly than usual; also recorded: Feel more comfortable during running; also recorded: Feel more relaxed both during and outside of practice” and the Other comments (athletes; [5]) was “The time taken to get rid of jet lag was reduced; also recorded: The symptoms of seasonal colds were not seen; also recorded: Stools have improved; also recorded: Bowel movements have improved; also recorded: Healing from injuries is faster; also recorded: Healing of fractures is much faster; also recorded: Healing of wounds after tooth extraction is faster; also recorded: Easier body weight loss; also recorded: Easier to control body weight gain; also recorded: Have improved concentration; also recorded: Symptoms of jet lag were alleviated”. For the same compound, the “Ease in sleep (questionnaire score), improvement in swimmers” value (athletes; [6]) was “particularly prominent”, the “Ease in waking up (questionnaire score), improvement in swimmers” value (athletes; [6]) was “particularly prominent” and the “Reduction of sleeping heart rate on average” value [1, 7] was 3.5 bpm. The Sleep duration [1, 7] was “no significant change”, the Sleeping heart rate [1, 7] was “significantly reduces” and the RMSSD during sleep ([1]; 10 mg KMP once a day, two weeks, vs placebo, FIG. 2 (left)) was “increase in RMSSD value”. For the same compound, the “LF/HF ratio during sleep” value ([1]; 10 mg KMP once a day, two weeks, vs placebo, FIG. 3 (left)) was “reduces the LF/HF ratio”, the “Rejuvenation of the age of autonomic nervous system function (from RMSSD vs age formula)” value ([1]; according to the formula shown in FIG. 2 (right)) was 16.3 years and the “Rejuvenation of the age of autonomic nervous system function (from LF/HF ratio vs age formula)” value ([1]; according to the formula shown in FIG. 3 (right)) was 5.8 years. For the same compound, the Sleep score ([1]; granular food with 10 mg KMP once a day after breakfast, two weeks, vs placebo, 34 subjects, scale 0 to 100, FIG. 1) was “significantly improves”, the “Effect on meteoropathy overall” value ([2]; 10 mg KMP once a day, 4 consecutive weeks) was “effective in the treatment and improvement of meteoropathy” and the “Frequency of occurrence of each symptom of meteoropathy” value ([2]; all 12 symptoms (stiff shoulders and neck, fatigue, lassitude, headache, overall ill health, irritation, depressed mood, inability to think straight, lower back pain, lethargy, anxiety, joint pain), 10 mg KMP once a day, 4 weeks, vs before intake, 393 subjects, FIG. 6) was “significantly reduces”. The “Degree of each symptom of meteoropathy (0-10 point scale)” value ([2]; all 12 symptoms, KMP intake vs before intake, FIG. 8) was “significantly alleviated”, the “Duration of each symptom of meteoropathy” value [2, 8] was “significantly reduced duration” and the “Proportion of no occurrence of the symptom” value [2, 8] was “increased proportion of no occurrence”.
